Experimental data as given in PubChem BioAssay (NCI).
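Protocol summary: plate cells (96-well), add compound at 5 concentrations, incubate 48 h, interpolate endpoints linearly. Abbreviation: GI50, concentration required for 50% inhibition of growth. TGI: concentration producing complete growth inhibition.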

Key:
Assay in all cases: NCI anticancer screen, dose series, 48 h
[1] = test system: NCI/ADR-RES ovarian
[2] = test system: A498 renal
[3] = test system: NCI-H226 lung
[4] = test system: HT29 colon
[5] = test system: DU-145 prostate
[6] = test system: OVCAR-3 ovarian
[7] = test system: MDA-MB-435
[8] = test system: 786-0 renal
[9] = test system: SF-295 CNS
[10] = test system: ACHN renal
[11] = test system: HOP-62 NSCLC
[12] = test system: OVCAR-8 ovarian
[13] = test system: SK-MEL-5 melanoma
[14] = test system: MALME-3M melanoma
[15] = test system: NCI-H23 lung
[16] = test system: SF-539 CNS
[17] = test system: EKVX NSCLC
[18] = test system: OVCAR-5 ovarian
[19] = test system: KM12 colon
[20] = test system: IGROV1 ovarian
[21] = test system: SK-OV-3 ovarian
[22] = test system: K-562 leukemia
[23] = test system: SNB-19 CNS
[24] = test system: HOP-92 NSCLC
[25] = test system: SNB-75 CNS
[26] = test system: MOLT-4 leukemia
[27] = test system: SR leukemia
[28] = test system: SN12C renal
[29] = test system: HS 578T breast
[30] = test system: SW-620 colon
[31] = test system: UACC-257 melanoma
[32] = test system: HL-60(TB) leukemia
[33] = test system: MCF7 breast
[34] = test system: M14 melanoma
[35] = test system: SK-MEL-28 melanoma
[36] = test system: CCRF-CEM leukemia
[37] = test system: UACC-62 melanoma
[38] = test system: HCT-116 colon
[39] = test system: U251 CNS
[40] = test system: BT-549 breast
[41] = test system: UO-31 renal
[42] = test system: TK-10 renal
[43] = test system: A549 NSCLC
[44] = test system: SF-268 CNS
[45] = test system: HCT-15 colon
[46] = test system: RXF 393 renal
[47] = test system: RPMI-8226 leukemia
[48] = test system: HCC-2998 colon
[49] = test system: NCI-H460 lung
[50] = test system: PC-3 prostate
[51] = test system: MDA-N
[52] = test system: NCI-H522 lung
[53] = test system: OVCAR-4 ovarian
[54] = test system: LOX IMVI melanoma
[55] = test system: T-47D breast
[56] = test system: MDA-MB-231 breast
[57] = test system: COLO 205 colon
[58] = test system: CAKI-1 renal
[59] = test system: SK-MEL-2 melanoma

CON(C)C(=O)C(C)NC(=O)OCc1ccccc1 (stereo not given)
TGI [1]: > 100000 nM | TGI [2]: > 100000 nM | TGI [3]: > 100000 nM | TGI [4]: > 100000 nM | TGI [5]: > 100000 nM | TGI [6]: > 100000 nM | TGI [7]: > 100000 nM | TGI [8]: > 100000 nM | TGI [9]: > 100000 nM | TGI [10]: > 100000 nM | TGI [11]: > 100000 nM | TGI [12]: > 100000 nM | TGI [13]: > 100000 nM | TGI [14]: > 100000 nM | TGI [15]: > 100000 nM | TGI [16]: > 100000 nM | TGI [17]: > 100000 nM | TGI [18]: > 100000 nM | TGI [19]: > 100000 nM | TGI [20]: > 100000 nM | TGI [21]: > 100000 nM | TGI [22]: > 100000 nM | TGI [23]: > 100000 nM | TGI [24]: > 100000 nM | TGI [25]: > 100000 nM | TGI [26]: > 100000 nM | TGI [27]: > 100000 nM | TGI [28]: > 100000 nM | TGI [29]: > 100000 nM | TGI [30]: > 100000 nM | TGI [31]: > 100000 nM | TGI [32]: > 100000 nM | TGI [33]: > 100000 nM | TGI [34]: > 100000 nM | TGI [35]: > 100000 nM | TGI [36]: > 100000 nM | TGI [37]: > 100000 nM | TGI [38]: > 100000 nM | TGI [39]: > 100000 nM | TGI [40]: > 100000 nM | TGI [41]: > 100000 nM | TGI [42]: > 100000 nM | TGI [43]: > 100000 nM | TGI [44]: > 100000 nM | TGI [45]: > 100000 nM | TGI [46]: > 100000 nM | TGI [47]: > 100000 nM | TGI [48]: > 100000 nM | TGI [49]: > 100000 nM | TGI [50]: > 100000 nM | TGI [51]: > 100000 nM

CNC(=O)Nc1ccc(-c2nc(N3CCOCC3)nc3c2cnn3C2CCOCC2)cc1
GI50 [1]: 511 nM | TGI [1]: > 22500 nM | GI50 [2]: < 21.8 nM | TGI [2]: 148 nM | GI50 [3]: 125 nM | TGI [3]: 4260 nM | GI50 [52]: 430 nM | TGI [52]: > 100000 nM | GI50 [4]: 295 nM | TGI [4]: > 100000 nM | GI50 [5]: 288 nM | TGI [5]: > 100000 nM | GI50 [6]: 210 nM | GI50 [7]: 168 nM | TGI [7]: 821 nM | GI50 [8]: 295 nM | TGI [8]: 2860 nM | GI50 [53]: 191 nM | GI50 [9]: 71.6 nM | TGI [9]: 585 nM | GI50 [10]: 225 nM | TGI [10]: 1740 nM | GI50 [11]: 230 nM | TGI [11]: 4380 nM | GI50 [12]: 247 nM | TGI [12]: 6470 nM | GI50 [13]: 208 nM | TGI [13]: 1220 nM | GI50 [14]: 50.9 nM | TGI [14]: 440 nM | GI50 [15]: 267 nM | TGI [15]: > 100000 nM | GI50 [16]: 205 nM | TGI [16]: 1360 nM | GI50 [17]: 180 nM | TGI [17]: 2420 nM | GI50 [18]: 194 nM | TGI [18]: 1360 nM | GI50 [19]: 384 nM | TGI [19]: > 100000 nM | GI50 [20]: 79.4 nM | TGI [20]: 493 nM | GI50 [21]: 120 nM | TGI [21]: 685 nM | GI50 [22]: 533 nM | TGI [22]: > 100000 nM | GI50 [54]: 161 nM | TGI [54]: > 100000 nM | GI50 [55]: 41.9 nM | TGI [55]: 341 nM | GI50 [23]: 396 nM | TGI [23]: > 100000 nM | GI50 [24]: 37.1 nM | TGI [24]: 526 nM | GI50 [25]: 45 nM | TGI [25]: 448 nM | GI50 [26]: 355 nM | TGI [26]: > 26800 nM | GI50 [27]: 239 nM | TGI [27]: > 19800 nM | GI50 [28]: 213 nM | TGI [28]: > 100000 nM | GI50 [56]: 292 nM | TGI [56]: > 51900 nM | GI50 [29]: 50.3 nM | TGI [29]: 303 nM | GI50 [30]: 332 nM | TGI [30]: > 100000 nM | GI50 [31]: 184 nM | TGI [31]: 1400 nM | GI50 [32]: 1010 nM | TGI [32]: > 100000 nM | GI50 [33]: 78.4 nM | TGI [33]: > 100000 nM | GI50 [34]: 233 nM | GI50 [35]: 164 nM | TGI [35]: 2220 nM | GI50 [36]: 276 nM | TGI [36]: > 100000 nM | GI50 [37]: 182 nM | TGI [37]: 1190 nM | GI50 [38]: 422 nM | TGI [38]: > 100000 nM | GI50 [39]: 258 nM | TGI [39]: > 38600 nM | GI50 [40]: 132 nM | TGI [40]: 2080 nM | GI50 [41]: 43.5 nM | TGI [41]: 544 nM | GI50 [42]: 172 nM | TGI [42]: 1470 nM | GI50 [43]: 204 nM | TGI [43]: 2710 nM | GI50 [44]: 284 nM | TGI [44]: > 51300 nM | GI50 [45]: 260 nM | TGI [45]: > 100000 nM | GI50 [46]: 140 nM | TGI [46]: 812 nM | GI50 [47]: 205 nM | GI50 [48]: 307 nM | TGI [48]: > 100000 nM | GI50 [49]: 131 nM | TGI [49]: > 100000 nM | GI50 [50]: 80.9 nM | TGI [50]: 7490 nM | GI50 [57]: 247 nM | TGI [57]: > 100000 nM | GI50 [58]: 227 nM | TGI [58]: 2620 nM | GI50 [59]: 382 nM | TGI [59]: 3560 nM

CN(C)c1ccc(/C=c2/c3ccccc3n3c2cc(-c2ccccc2)[n+]3C)cc1
TGI [1]: > 100000 nM | TGI [2]: 4380 nM | TGI [3]: 1070 nM | TGI [4]: 908 nM | TGI [5]: 1920 nM | TGI [7]: 1120 nM | TGI [8]: 1340 nM | TGI [53]: 2100 nM | TGI [10]: 2330 nM | TGI [11]: 1120 nM | TGI [12]: 567 nM | TGI [13]: 380 nM | TGI [18]: 2190 nM | TGI [19]: 694 nM | TGI [20]: 819 nM | TGI [21]: 2000 nM | TGI [22]: > 100000 nM | TGI [23]: 1280 nM | TGI [24]: 1010 nM | TGI [27]: 658 nM | TGI [31]: 1880 nM | TGI [32]: 123 nM | TGI [34]: 1440 nM | TGI [35]: 1870 nM | TGI [38]: 1320 nM | TGI [39]: 1150 nM | TGI [41]: 2350 nM | TGI [42]: 4530 nM | TGI [43]: 2040 nM | TGI [44]: 1080 nM | TGI [45]: 3060 nM | TGI [47]: 488 nM | TGI [48]: > 100000 nM | TGI [50]: 1040 nM | TGI [51]: 1220 nM | TGI [58]: 7650 nM | TGI [59]: 573 nM
